Assays:
[1] = target: Muscarinic acetylcholine receptor M2 (Homo sapiens) (UniProt P08172); assay: Inhibition of muscarinic M2 receptor (unknown origin) relative to control; conditions: concentration not given here
[2] = target: 3',5'-cyclic-AMP phosphodiesterase 4B (Homo sapiens, UniProt Q07343); assay: Inhibition of recombinant human C-terminal His-tagged N-terminal GST-tagged PDE4B2 expressed in baculovirus infected Sf9 cells by radioligand binding assay; type: cell-based
[3] = target: Alpha-2A adrenergic receptor (Homo sapiens) (UniProt P08913); assay: Inhibition of adrenoceptor alpha 2A (unknown origin) relative to control; conditions: concentration not given here
[4] = target: D(1A) dopamine receptor (Homo sapiens) (UniProt P21728); assay: Inhibition of D1 (unknown origin) relative to control; conditions: concentration not given here
[5] = target: High affinity cAMP-specific and IBMX-insensitive 3',5'-cyclic phosphodiesterase 8A (Homo sapiens) (UniProt O60658); assay: Inhibition of recombinant human N-terminal GST-tagged PDE8A1 expressed in baculovirus infected Sf9 cells at 10 uM by radioligand assay relative to control
[6] = target: 5-hydroxytryptamine receptor 2A (Homo sapiens) (UniProt P28223); assay: Inhibition of 5HT2A (unknown origin) relative to control; conditions: concentration not given here
[7] = target: D(3) dopamine receptor (Homo sapiens) (UniProt P35462); assay: Inhibition of D3 (unknown origin) relative to control; conditions: concentration not given here
[8] = target: cGMP-inhibited 3',5'-cyclic phosphodiesterase 3A (Homo sapiens) (UniProt Q14432); assay: Inhibition of recombinant human N-terminal His-tagged PDE3A (669 to 1141 end residues) expressed in baculovirus infected Sf9 cells at 10 uM by radioligand assay relative to control
[9] = target: Histamine H1 receptor (Homo sapiens) (UniProt P35367); assay: Inhibition of histamine H1 receptor (unknown origin) relative to control; conditions: concentration not given here
[10] = Inhibition of recombinant human N-terminal GST-tagged PDE4A1A (1 to 647 residues) expressed in baculovirus infected Sf9 cells at 10 uM by radioligand assay relative to control
[11] = target: Cone cGMP-specific 3',5'-cyclic phosphodiesterase subunit alpha' (Homo sapiens) (UniProt P51160); assay: Inhibition of recombinant human N-terminal GST-tagged PDE6C expressed in baculovirus infected Sf9 cells at 10 uM by radioligand assay relative to control
[12] = target: Histamine H2 receptor (Homo sapiens) (UniProt P25021); assay: Inhibition of histamine H2 receptor (unknown origin) relative to control; conditions: concentration not given here
[13] = target: 5-hydroxytryptamine receptor 1A (Homo sapiens) (UniProt P08908); assay: Inhibition of 5HT1A (unknown origin) relative to control; conditions: concentration not given here
[14] = target: Dual 3',5'-cyclic-AMP and -GMP phosphodiesterase 11A (Homo sapiens) (UniProt Q9HCR9); assay: Inhibition of recombinant human N-terminal GST-tagged PDE11A4 expressed in baculovirus infected Sf9 cells at 10 uM by radioligand assay relative to control
[15] = Effect on TNFalpha production in C57BL/6 mouse bone marrow derived Macrophage at 1 to 10 uM incubated for 30 mins by ELISA; conditions: 0.5 h
[16] = target: Beta-2 adrenergic receptor (Homo sapiens) (UniProt P07550); assay: Inhibition of adrenoceptor beta2 (unknown origin) relative to control; conditions: concentration not given here
[17] = Metabolic stability in mouse liver microsomes assessed as intrinsic clearance; type: ADME, Microsome; conditions: read-out: CLH
[18] = target: Translocator protein TSPO (Homo sapiens) (UniProt P30536); assay: Inhibition of PBR receptor (unknown origin) relative to control; conditions: concentration not given here
[19] = target: Delta-type opioid receptor (Homo sapiens) (UniProt P41143); assay: Inhibition of DOR receptor (unknown origin) relative to control; conditions: concentration not given here
[20] = target: Muscarinic acetylcholine receptor M3 (Homo sapiens) (UniProt P20309); assay: Inhibition of muscarinic M3 receptor (unknown origin) relative to control; conditions: concentration not given here
[21] = target: cAMP and cAMP-inhibited cGMP 3',5'-cyclic phosphodiesterase 10A (Homo sapiens) (UniProt Q9Y233); assay: Inhibition of recombinant human N-terminal GST-tagged PDE10A2 expressed in baculovirus infected Sf9 cells at 10 uM by radioligand assay relative to control
[22] = target: Dual specificity calcium/calmodulin-dependent 3',5'-cyclic nucleotide phosphodiesterase 1B (Homo sapiens) (UniProt Q01064); assay: Inhibition of recombinant human N-terminal GST-tagged PDE1B expressed in baculovirus infected Sf9 cells at 10 uM by radioligand assay relative to control
[23] = target: Sigma non-opioid intracellular receptor 1 (Homo sapiens) (UniProt Q99720); assay: Inhibition of sigma1 receptor (unknown origin) relative to control; conditions: concentration not given here
[24] = target: 3',5'-cyclic-AMP phosphodiesterase 4D (Homo sapiens) (UniProt Q08499); assay: Inhibition of recombinant human N-terminal GST-tagged PDE4D3 expressed in baculovirus infected Sf9 cells at 10 uM by radioligand assay relative to control
[25] = target: cAMP and cAMP-inhibited cGMP 3',5'-cyclic phosphodiesterase 10A (Homo sapiens) (UniProt Q9Y233); assay: Inhibition of recombinant human N-terminal GST-tagged PDE10A1 (2 to 789 residues) expressed in baculovirus infected Sf9 cells at 10 uM by radioligand assay relative to control
[26] = target: 3',5'-cyclic-AMP phosphodiesterase 7B (Homo sapiens) (UniProt Q9NP56); assay: Inhibition of recombinant human N-terminal GST-tagged C-terminal His-tagged PDE7B (109 to end residues) expressed in baculovirus infected Sf9 cells at 10 uM by radioligand assay relative to control
[27] = target: Alpha-1B adrenergic receptor (Homo sapiens) (UniProt P35368); assay: Inhibition of adrenoceptor alpha 1B (unknown origin) relative to control; conditions: concentration not given here
[28] = Metabolic stability in human liver microsomes assessed as intrinsic clearance; type: ADME, Microsome; conditions: read-out: CLH
[29] = target: D(4) dopamine receptor (Homo sapiens) (UniProt P21917); assay: Inhibition of D4 (unknown origin) relative to control; conditions: concentration not given here
[30] = Protein binding in mouse plasma assessed as unbound fraction; type: ADME, cell-free
[31] = target: Sigma intracellular receptor 2 (Homo sapiens, UniProt Q5BJF2); assay: Inhibition of sigma2 receptor (unknown origin) relative to control; conditions: concentration not given here
[32] = target: Dual specificity calcium/calmodulin-dependent 3',5'-cyclic nucleotide phosphodiesterase 1C (Homo sapiens) (UniProt Q14123); assay: Inhibition of recombinant human N-terminal GST-tagged PDE1C expressed in baculovirus infected Sf9 cells at 10 uM by radioligand assay relative to control
[33] = target: Alpha-2C adrenergic receptor (Homo sapiens) (UniProt P18825); assay: Inhibition of adrenoceptor alpha 2C (unknown origin) relative to control; conditions: concentration not given here
[34] = Protein binding in human plasma assessed as unbound fraction; type: ADME, cell-free
[35] = target: 5-hydroxytryptamine receptor 1D (Homo sapiens) (UniProt P28221); assay: Inhibition of 5HT1D (unknown origin) relative to control; conditions: concentration not given here
[36] = target: 5-hydroxytryptamine receptor 2C (Homo sapiens, UniProt P28335); assay: Inhibition of 5HT2C (unknown origin)
[37] = target: Alpha-1A adrenergic receptor (Homo sapiens) (UniProt P35348); assay: Inhibition of adrenoceptor alpha 1A (unknown origin) relative to control; conditions: concentration not given here
Chain of Alpha-1A adrenergic receptor (Homo sapiens) (P35348 whole entry): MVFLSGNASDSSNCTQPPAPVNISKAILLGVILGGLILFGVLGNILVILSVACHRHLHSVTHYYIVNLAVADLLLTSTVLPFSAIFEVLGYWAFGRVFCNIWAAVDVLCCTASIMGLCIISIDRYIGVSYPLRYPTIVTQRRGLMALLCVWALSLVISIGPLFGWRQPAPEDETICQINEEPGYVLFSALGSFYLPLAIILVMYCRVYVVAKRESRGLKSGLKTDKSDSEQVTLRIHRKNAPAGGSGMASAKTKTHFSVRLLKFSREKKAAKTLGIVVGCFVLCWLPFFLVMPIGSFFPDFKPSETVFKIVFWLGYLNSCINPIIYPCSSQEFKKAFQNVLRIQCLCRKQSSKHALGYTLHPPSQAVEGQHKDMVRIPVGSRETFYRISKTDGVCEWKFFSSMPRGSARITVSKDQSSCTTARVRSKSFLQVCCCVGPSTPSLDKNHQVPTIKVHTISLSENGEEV

Chain of cAMP and cAMP-inhibited cGMP 3',5'-cyclic phosphodiesterase 10A (Homo sapiens) (Q9Y233 whole entry, the tested form may be a part): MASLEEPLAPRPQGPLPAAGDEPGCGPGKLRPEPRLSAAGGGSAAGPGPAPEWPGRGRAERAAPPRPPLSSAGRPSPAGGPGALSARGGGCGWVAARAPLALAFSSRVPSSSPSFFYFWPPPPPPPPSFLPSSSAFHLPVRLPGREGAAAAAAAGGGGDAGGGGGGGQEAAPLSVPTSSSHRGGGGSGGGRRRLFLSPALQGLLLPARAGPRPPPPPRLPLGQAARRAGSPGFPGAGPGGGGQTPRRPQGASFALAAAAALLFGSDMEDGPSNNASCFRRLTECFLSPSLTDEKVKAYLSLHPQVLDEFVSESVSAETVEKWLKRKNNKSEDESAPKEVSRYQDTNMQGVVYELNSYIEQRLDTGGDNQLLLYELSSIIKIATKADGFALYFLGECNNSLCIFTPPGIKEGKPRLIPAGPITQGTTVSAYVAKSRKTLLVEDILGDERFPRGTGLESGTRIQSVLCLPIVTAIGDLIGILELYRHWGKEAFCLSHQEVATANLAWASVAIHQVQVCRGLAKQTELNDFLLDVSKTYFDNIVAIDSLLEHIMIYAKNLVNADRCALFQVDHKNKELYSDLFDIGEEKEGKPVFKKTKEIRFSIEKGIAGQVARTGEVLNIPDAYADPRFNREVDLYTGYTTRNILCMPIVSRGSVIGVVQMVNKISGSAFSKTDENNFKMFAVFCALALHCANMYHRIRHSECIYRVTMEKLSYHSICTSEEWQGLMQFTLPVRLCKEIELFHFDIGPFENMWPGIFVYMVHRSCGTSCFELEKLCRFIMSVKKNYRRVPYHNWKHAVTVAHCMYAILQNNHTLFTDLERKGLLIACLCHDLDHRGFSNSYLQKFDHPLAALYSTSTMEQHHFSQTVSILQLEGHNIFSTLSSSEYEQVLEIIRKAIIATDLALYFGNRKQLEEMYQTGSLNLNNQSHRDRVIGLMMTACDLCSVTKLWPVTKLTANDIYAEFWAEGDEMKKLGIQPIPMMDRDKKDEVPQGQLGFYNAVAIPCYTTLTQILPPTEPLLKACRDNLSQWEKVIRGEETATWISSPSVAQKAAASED
Chain of Sigma non-opioid intracellular receptor 1 (Homo sapiens) (Q99720 whole entry): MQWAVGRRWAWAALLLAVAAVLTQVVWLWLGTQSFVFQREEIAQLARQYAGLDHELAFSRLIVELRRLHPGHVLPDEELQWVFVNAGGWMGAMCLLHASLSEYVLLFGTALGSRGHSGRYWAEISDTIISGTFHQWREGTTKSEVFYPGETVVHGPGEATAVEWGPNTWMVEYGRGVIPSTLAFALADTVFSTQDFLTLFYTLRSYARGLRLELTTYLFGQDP
Chain of Beta-2 adrenergic receptor (Homo sapiens) (P07550 whole entry, looked up): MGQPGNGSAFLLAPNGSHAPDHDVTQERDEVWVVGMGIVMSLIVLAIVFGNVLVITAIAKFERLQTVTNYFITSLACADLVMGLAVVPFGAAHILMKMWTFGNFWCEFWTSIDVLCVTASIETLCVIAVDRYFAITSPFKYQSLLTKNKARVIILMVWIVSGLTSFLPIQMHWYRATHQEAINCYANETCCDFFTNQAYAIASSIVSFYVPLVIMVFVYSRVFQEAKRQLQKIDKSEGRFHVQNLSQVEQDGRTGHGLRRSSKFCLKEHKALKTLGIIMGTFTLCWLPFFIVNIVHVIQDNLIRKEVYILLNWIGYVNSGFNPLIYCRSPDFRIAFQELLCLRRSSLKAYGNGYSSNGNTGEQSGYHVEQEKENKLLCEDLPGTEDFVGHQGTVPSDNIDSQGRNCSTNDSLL
Chain of Cone cGMP-specific 3',5'-cyclic phosphodiesterase subunit alpha' (Homo sapiens) (P51160 whole entry): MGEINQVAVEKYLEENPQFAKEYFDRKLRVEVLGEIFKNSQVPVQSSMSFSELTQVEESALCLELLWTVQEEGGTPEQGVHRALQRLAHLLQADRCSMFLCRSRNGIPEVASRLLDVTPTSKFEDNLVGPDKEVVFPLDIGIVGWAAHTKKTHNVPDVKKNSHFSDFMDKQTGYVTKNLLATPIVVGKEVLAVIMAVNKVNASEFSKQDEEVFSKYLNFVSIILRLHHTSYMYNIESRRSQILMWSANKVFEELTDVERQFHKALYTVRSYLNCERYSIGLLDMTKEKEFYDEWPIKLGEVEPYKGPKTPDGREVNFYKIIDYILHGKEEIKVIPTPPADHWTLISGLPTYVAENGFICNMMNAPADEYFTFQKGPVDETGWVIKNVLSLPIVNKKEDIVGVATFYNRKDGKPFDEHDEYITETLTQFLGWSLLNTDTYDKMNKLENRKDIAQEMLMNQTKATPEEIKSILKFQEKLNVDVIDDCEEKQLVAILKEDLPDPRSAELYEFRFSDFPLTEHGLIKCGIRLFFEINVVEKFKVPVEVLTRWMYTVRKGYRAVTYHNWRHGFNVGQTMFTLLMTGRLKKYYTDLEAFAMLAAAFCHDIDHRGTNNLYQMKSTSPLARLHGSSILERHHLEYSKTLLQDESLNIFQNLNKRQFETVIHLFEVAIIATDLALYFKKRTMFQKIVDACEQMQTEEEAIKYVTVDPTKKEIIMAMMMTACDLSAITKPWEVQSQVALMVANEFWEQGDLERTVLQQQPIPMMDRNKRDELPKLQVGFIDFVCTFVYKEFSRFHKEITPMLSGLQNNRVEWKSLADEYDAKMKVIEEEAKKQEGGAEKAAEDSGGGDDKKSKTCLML
Chain of 5-hydroxytryptamine receptor 1A (Homo sapiens) (P08908 whole entry): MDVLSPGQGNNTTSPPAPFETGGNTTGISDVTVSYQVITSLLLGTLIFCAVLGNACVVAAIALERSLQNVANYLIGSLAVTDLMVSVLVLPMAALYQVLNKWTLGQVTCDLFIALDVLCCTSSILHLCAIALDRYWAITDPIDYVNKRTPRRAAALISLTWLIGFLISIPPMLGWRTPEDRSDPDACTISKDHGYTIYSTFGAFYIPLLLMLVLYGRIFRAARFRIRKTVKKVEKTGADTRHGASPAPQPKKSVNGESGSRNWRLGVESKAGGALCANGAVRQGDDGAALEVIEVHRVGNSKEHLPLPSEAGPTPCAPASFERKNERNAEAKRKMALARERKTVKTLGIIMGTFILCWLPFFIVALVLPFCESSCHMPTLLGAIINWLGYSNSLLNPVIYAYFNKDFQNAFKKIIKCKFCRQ
Chain of 5-hydroxytryptamine receptor 1D (Homo sapiens) (P28221 whole entry): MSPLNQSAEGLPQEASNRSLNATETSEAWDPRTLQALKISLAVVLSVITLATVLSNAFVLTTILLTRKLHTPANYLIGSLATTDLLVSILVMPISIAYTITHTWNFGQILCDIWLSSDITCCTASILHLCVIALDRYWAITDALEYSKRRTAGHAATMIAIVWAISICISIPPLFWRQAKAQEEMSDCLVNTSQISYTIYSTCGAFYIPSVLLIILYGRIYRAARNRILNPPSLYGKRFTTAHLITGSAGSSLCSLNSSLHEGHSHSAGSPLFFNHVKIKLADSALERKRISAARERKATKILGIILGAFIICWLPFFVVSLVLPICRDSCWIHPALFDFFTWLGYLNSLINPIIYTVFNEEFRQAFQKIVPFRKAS
Chain of 3',5'-cyclic-AMP phosphodiesterase 4B (Q07343 whole entry): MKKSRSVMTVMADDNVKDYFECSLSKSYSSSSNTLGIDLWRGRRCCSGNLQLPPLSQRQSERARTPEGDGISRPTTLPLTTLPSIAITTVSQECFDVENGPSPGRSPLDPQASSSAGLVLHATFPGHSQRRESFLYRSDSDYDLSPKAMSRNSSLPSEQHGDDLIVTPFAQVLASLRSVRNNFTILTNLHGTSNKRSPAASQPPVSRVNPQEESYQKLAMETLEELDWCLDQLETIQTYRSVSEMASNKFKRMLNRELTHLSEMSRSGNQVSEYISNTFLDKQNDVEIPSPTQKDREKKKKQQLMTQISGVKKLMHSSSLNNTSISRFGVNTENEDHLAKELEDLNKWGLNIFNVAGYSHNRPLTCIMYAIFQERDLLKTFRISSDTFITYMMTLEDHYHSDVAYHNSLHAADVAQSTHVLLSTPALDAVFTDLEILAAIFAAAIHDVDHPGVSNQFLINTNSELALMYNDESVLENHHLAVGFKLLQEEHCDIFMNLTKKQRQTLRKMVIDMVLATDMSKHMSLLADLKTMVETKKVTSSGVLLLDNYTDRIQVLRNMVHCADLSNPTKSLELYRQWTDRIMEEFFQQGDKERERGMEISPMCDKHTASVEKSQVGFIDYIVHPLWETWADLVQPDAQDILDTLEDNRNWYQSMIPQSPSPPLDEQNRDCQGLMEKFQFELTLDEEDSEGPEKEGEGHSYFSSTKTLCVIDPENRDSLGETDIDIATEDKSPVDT
Chain of Sigma intracellular receptor 2 (Q5BJF2 whole entry): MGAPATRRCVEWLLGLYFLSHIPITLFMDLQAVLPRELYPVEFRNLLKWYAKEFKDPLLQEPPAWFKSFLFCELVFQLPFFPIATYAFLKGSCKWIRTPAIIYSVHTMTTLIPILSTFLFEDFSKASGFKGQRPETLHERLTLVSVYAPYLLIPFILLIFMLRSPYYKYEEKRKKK
Chain of Translocator protein TSPO (Homo sapiens) (P30536 whole entry, looked up): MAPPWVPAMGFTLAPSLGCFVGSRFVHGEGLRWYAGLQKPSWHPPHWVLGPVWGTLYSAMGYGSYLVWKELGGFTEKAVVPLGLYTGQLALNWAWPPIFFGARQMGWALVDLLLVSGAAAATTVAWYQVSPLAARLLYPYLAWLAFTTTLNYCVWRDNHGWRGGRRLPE

Compound: O=C(c1nc2cccnc2n1-c1ccc(Cl)c(Cl)c1)N1CC(F)(F)C1
- inhibition [1]: < 50%
- IC50 [2]: 140 nM
- inhibition [3]: < 50%
- inhibition [4]: < 50%
- inhibition [5]: < 50%
- inhibition [6]: < 50%
- inhibition [7]: < 50%
- inhibition [8]: < 50%
- inhibition [9]: < 50%
- inhibition [10]: < 50%
- inhibition [11]: < 50%
- inhibition [12]: < 50%
- inhibition [13]: < 50%
- inhibition [14]: < 50%
- Activity [15]: Non-Toxic
- inhibition [16]: < 50%
- CLint scaled [17]: 100 mL/min/kg
- inhibition [18]: < 50%
- inhibition [19]: < 50%
- inhibition [20]: < 50%
- inhibition [21]: < 50%
- inhibition [22]: < 50%
- inhibition [23]: < 50%
- inhibition [24]: < 50%
- inhibition [25]: < 50%
- inhibition [26]: < 50%
- inhibition [27]: < 50%
- CLint scaled [28]: 97.1 mL/min/kg
- inhibition [29]: < 50%
- fraction unbound [30]: 0.027
- inhibition [31]: 70%
- inhibition [32]: < 50%
- inhibition [33]: < 50%
- fraction unbound [34]: 0.038
- inhibition [35]: < 50%
- IC50 [36]: > 10000 nM
- inhibition [37]: < 50%
